Experimental data reported in US10927155B2, “Dual inhibitory action peptidomimetic inhibitor for IL-33 and IL-1beta” (GEORGE MASON UNIVERSITY, priority 2015, dated 2021).
Bridge positions count the residues as written; N and C are the ends. Ends that are not written are not given here.

Test system: IL-1β/IL-1R1 dependent signaling
Assay: HEK-Blue IL-33/IL-1β reporter cells (SEAP) stimulated with IL-1β
Assay type: cell-based
Conditions: FIG. 15; for IL-1β/IL-1R1 dependent signaling (NF-κB and AP-1): HEK Blue reporter cells stimulated with IL-1
Source text: HEK-Blue™ IL-33/IL-1β cells were purchased from InvivoGen. These cells were transfected with a reporter gene, secreted embryonic alkaline phosphatase (SEAP), under the control of the IFN-β minimal promoter fused to five NF-κB and five AP-1 binding sites. In the presence of bioactive IL1β and/or IL33, HEK-Blue cells activate the NF-κB and AP-1 pathways triggering the production of SEAP. SEAP activity in cell supernatant is quantified using a colorimetric enzyme assay (QUANTI-Blue™, InvivoGen).
HEK Blue IL-33/IL-1β Reporter Cells. HEK-Blue™ IL-33/IL-1β Cells were purchased from InvivoGen. These cells were generated by transfection with a reporter gene, secreted embryonic alkaline phosphatase (SEAP), under the control of the IFN-β minimal promoter fused to five NF-κB and five AP-1 binding sites. In the presence of bioactive IL-1β and/or IL-33, HEK-Blue cells activated the NF-κB and AP-1 pathways triggering the production of SEAP. SEAP activity in cell supernatant was quantified using a colorimetric enzyme assay (QUANTI-Blue™, InvivoGen). HEK Blue cells were grown in DMEM, 4.5 g/l glucose, 2 mM L-Glutamine, 10% (v/v) heat-inactivated fetal bovine serum (30 min at 56° C.). After two passages, cells were exposed to selective medium (DMEM, 4.5 g/l glucose, 2 mM L-Glutamine, 10% heat-inactivated FBS (v/v) with of blasticidin (30 μg/ml), hygromycin B ([…]), and Zeocin™ ([…])). Cells were then plate in 96 well plates (10,000 cell per well) and stimulated with IL-1β (1 ng) and IL-33 (5 ng) in presence or absence of inhibitors.

## TINQSCSHSRTQNQTRTQCLS (disulfide 6-19 (inferred)) [RedAgg_Cycl, Arg286 peptide with glutamine replacements and two cysteines forming a disulfide bridge]
  IL-1β/IL-1R1 dependent signaling (NF-κB and AP-1): inhibit IL-1β/IL-1R1 dependent signaling

## TNFα [reference compound]
Cytokine used instead of IL-1 as stimulus
  signaling activity of cytokine specificity controls: no significant signaling activity

## TINQSISHSRTQNQTRTQILS (Synthetic construct RedAgg) [Arg286 peptide with glutamic acid replaced by glutamine to reduce aggregation]
  IL-1β/IL-1R1 dependent signaling (NF-κB and AP-1): inhibit IL-1β/IL-1R1 dependent signaling

## TINESCSHSRTEDETRTQCLS [Cycl]
  IL-1β/IL-1R1 dependent signaling (NF-κB and AP-1): inhibit IL-1β/IL-1R1 dependent signaling

## TINESISHSRTEDETRTQILS (Synthetic construct Arg286)
  IL-1β/IL-1R1 dependent signaling (NF-κB and AP-1): inhibit IL-1β/IL-1R1 dependent signaling
